The results in this text go back to patent US7662842B2, “Thiazolidinone amides, thiazolidine carboxylic acid amides, and serine amides, including polyamine conjugates thereof, as selective anti-cancer agents” (Ohio State Univesity Research Foundation, priority 2003, dated 2010).

pIC50: −log10 of the molar value.

The term pIC50 denotes the IC50 on a negative log10 scale, so that one unit is a factor of ten. For orientation: melting point means the temperature of the solid-liquid transition.

In one series the test system is WM-164 cells. Put plainly: Sulforhodamine B assay in melanoma cells, WM-164. The note with it: Homo sapiens, WM164, read-out: IC50 WM-164; SRB assay, 48 h incubation; melanoma cell line. The format is cell-based. As for the experimental part:
(§1) SKMEL-188 cells were cultured in Ham's F10 medium (Gibco Invitrogen, Inc., Grand Island, N.Y.) plus 5% fetal bovine serum (Cellgro Mediatech, Inc., Herndon, Va.) and 1% antibiotic/antimycotic mixture (Sigma-Aldrich, Inc., St. Louis, Mo.). WM-164 cells (gift of Dr. Meenhard Herlyn, Wistar Inst., Philadelphia, Pa.) and human dermal fibroblasts (Cascade Biologics, Inc., Portland, Oreg.) were cultured in DMEM medium (Cellgro Mediatech, Inc.) supplemented with 5% fetal bovine serum, 1% antibiotic.antimycotic mixture and bovine insulin ([…], Sigma-Aldrich, Inc.). Human dermal fibroblasts were used as a control to examine the effects of compounds on stromal environment. Thus, the effect of the various compounds on melanoma cells versus fibroblasts would document their potential selectivity.
(§2) Sulforhodamine B Assay: Cells were seeded into 96-well plates at 5000 cells/well. After 12 hours, media were changed and serial dilutions of compounds were added. Cells were incubated with each compound for 48 hours. Fresh media containing the test compound were changed ever 24 hours. Thereafter, total cell protein corresponding to cell numbers (both viable and non-viable cells) were measured using the sulforhodamine B (SRB) assay according to manufacturer's protocol (Sigma-Aldrich, Inc.) (Rubinstein et al., “Comparison of in vitro Anticancer Drug-screening Data Generated with a Tetrazolium Assay Versus a Protein Assay Against a Diverse Panel of Human Tumor Cell Lines,” J. Natl. Cancer Inst. 82:1113-1118 (1990); Dothager et al., “Synthesis and Identification of Small Molecules that Potently Induce Apoptosis in Melanoma Cells Through GI Cell Cycle Arrest,” J. Am. Chem. Soc. 127:8686-8696 (2005), each of which is hereby incorporated by reference in its entirety). Briefly, cells were fixed with trichloracetic acid, washed and incubated with sulforhodamine B for 30 minutes. After another wash, dye incorporated into the cells was solubilized and measured using a plate reader at 565 nm.
(§3) Statistical Analysis: Data is presented as mean±SEM (n=6-8). […] Statistical analyses were performed with Student's t-test (*p<0.05; **p<0.005).
(§4) DTIC and Taxol were assayed in the same way for comparison and served as internal quality controls in the different batches of assay. For comparison, the activities of 5R and 5S were measured.

The test system of the next series is SKMEL-188 melanoma cells. Put plainly: Sulforhodamine B assay in melanoma cells, SKMEL-188. Type of series: cell-based. The note with it: SK-MEL-188, 48 h, SRB assay, 48 h incubation; melanoma cell line. As for the experimental part:
as §1, §2, §3, §4
(The SRB assay estimates cell density from bound dye.)

The subject of a further series is LNCaP cells. Put plainly: DNA fragmentation by agarose gel electrophoresis. The format is cell-based, human. The note with it: treatment for 24 to […], 3-50 μM, FIGS. 4A-B. As for the experimental part:
In FIG. 4B, the dose and exposure time are indicated for compound 5 as follows: lane 1, 100 bp DNA marker; lane 2, 5 μM for 24 h; lane 3, 5 μM for 48 h; lane 4, 5 μM for 72 h; lane 5, 5 μM for 96 h; lane 6, 3 μM for 96 h; lane 7, 8 μM for 48 h; and lane 8, 8 μM for 72 h.

Another series deals with human dermal fibroblasts. Put plainly: Sulforhodamine B assay, fibroblast control cells. Type of series: cell-based. The note with it: Homo sapiens, Fibroblast, 48 h, SRB assay, 48 h incubation. As for the experimental part: as §1, §2, §3, §4
Series [1] deals with DU-145 human prostate cancer cells. Put plainly: SRB cytotoxicity assay, DU-145. The format is cell-based. Conditions: Homo sapiens, DU-145, read-out: IC50 DU-145, 96 h exposure, prostate cancer cell line.
The test system of series [2] is CaOv-3 human ovarian cancer cell line. Put plainly: SRB cytotoxicity assay, CaOv-3. Type of series: cell-based. How it is done: (§5) For in vitro cytotoxicity screening, 1000 to 5000 cells were plated into each well of 96-well plates depending on growth rate, and exposed to different concentrations of a test compound for 96 h in three to five replicates. All the compounds were dissolved in dimethyl sulfoxide at 5 to 20 mM, and diluted to desired concentrations in complete culture medium. Cell numbers at the end of the drug treatment were measured by the SRB assay (Gududuru et al., “Synthesis and Biological Evaluation of Novel Cytotoxic Phospholipids for Prostate Cancer,” Bioorg. Med. Chem. Lett. 14:4919-4923 (2004); Rubinstein et al., “Comparison of in vitro Anticancer-Drug-Screening Data Generated with a Tetrazolium Assay Versus a Protein Assay Against a Diverse Panel of Human Tumor Cell Lines,” J. Natl. Cancer Inst. 82:1113-1118 (1990), each of which is hereby incorporated by reference in its entirety). Briefly, the cells were fixed with 10% of trichloroacetic acid, stained with 0.4% SRB, and the absorbances at 540 nm was measured using a plate reader (DYNEX Technologies, Chantilly, Va.). […] A sandwich ELISA (Roche, Mannheim, Germany) utilizing monoclonal antibodies specific for DNA and histones was used to quantify degree of apoptosis induced by the analogs after 72 h exposure. This assay measures DNA-histone complexes (mono- and oligonucleosomes) released into cytoplasm from the nucleus during apoptosis. RH7777 cells were employed because of nonspecific cytotoxicity of compound 4 in receptor-negative cells as well as receptor-positive prostate cancer cells.
(§6) In vitro cytotoxicity assay was performed by the same sulforhodamine B (SRB) assay (described above). The compounds shown in Table 8 below where tested for activity against the breast cancer and ovarian cancer cell lines.

Series [3] has as its system TSU-Pr1 human prostate cancer cells. Put plainly: SRB cytotoxicity assay, TSU-Pr1. Type of series: cell-based. The note with it: Homo sapiens, TSU-Pr1, 96 h exposure, prostate cancer cell line.
Series [4] concerns SKOv-3 human ovarian cancer cell line. Put plainly: SRB cytotoxicity assay, SKOv-3. The format is cell-based. The note with it: SK-OV-3. How it is done: as §5, §6
Series [5] has as its system RH7777 rat hepatoma cells. Put plainly: SRB cytotoxicity assay, RH7777 control cell line. Type of series: cell-based. The note with it: Rattus norvegicus, RH7777; SRB assay, 96 h exposure; control cell line.
The subject of series [6] is LNCaP human prostate cancer cells. Put plainly: SRB cytotoxicity assay, LNCaP. The format is cell-based. The note with it: Homo sapiens, LNCaP, 96 h exposure, prostate cancer cell line.
The test system of series [7] is PPC-1 human prostate cancer cells. Put plainly: SRB cytotoxicity assay, PPC-1. Type of series: cell-based. Conditions: Homo sapiens, PPC-1, 96 h exposure, prostate cancer cell line.
The test system of series [8] is OVCAR-3 human ovarian cancer cell line. Put plainly: SRB cytotoxicity assay, OVCAR-3. The format is cell-based. How it is done: as §5, §6

Consider `CCCCCCCCCCCCCCCCCCNC(=O)[C@@H]1CSC(c2ccccc2)N1.Cl` (mixture of isomers) [Compound 5, (2RS, 4R)-2-Phenylthiazolidine-4-carboxylic acid octadecylamide Hydrochloride], for which the results for the pIC50 with WM-164 cells, in the series on SKMEL-188 melanoma cells and in the series on human dermal fibroblasts were less than 4.30, 4.40 and less than 4.30, respectively. Moreover, the “DNA fragmentation (apoptosis) in LNCaP cells” value in the series with LNCaP cells is listed as “induce cell apoptosis”.

As to `CCCCCCCCCCCCCCCCCCNC(=O)[C@@H]1CSC(c2ccc(OC)c(OC)c2)N1.Cl` (mixture of isomers) [Compound 16, (2RS, 4R)-2-(3,4-Dimethoxy-phenyl)-thiazolidine-4-carboxylic acid octadecylamide Hydrochloride], the melting point worked out at 103 °C. In addition, the pIC50 with WM-164 cells is 5.51. The pIC50 in [1] is 5.35. In series [2], the pIC50 is 5.26. The same compound showed a pIC50 in [3] of 5.62. For the same compound, the pIC50 in series [4] was 5.44. Also, the pIC50 in series [5] is 4.99. In the series with SKMEL-188 melanoma cells, this compound showed a negative-log IC50 (pIC50) of 5.62. The pIC50 in [6] was 6.07. Also, the negative logarithm of the IC50 (pIC50) in series [7] was 6.24. Moreover, the pIC50 in the series with human dermal fibroblasts was less than 5.00. The same compound gave a pIC50 in series [8] of 5.92.
